Results on one compound are retold here after publication PMC5730592, “Parallelogram based approach for in vivo dose estimation of genotoxic metabolites in humans with relevance to reduction of animal experiments” (Scientific Reports, 2017).

Series [1] can be described thus: In vivo dose (AUC) in rat calculated from measured Hb adduct levels after AA exposure. The conditions noted are these: from Hb adduct levels. As for the experimental part:
The in vivo dose or AUC of a compound in blood is the concentration integrated over time (Eq. 2).2 AUC=∫tC(t)dt A method to infer the AUC of an electrophilic compound or metabolite from measured Hb adduct levels (A) has been developed and established by our research group for quantitative monitoring of exposure in humans or for application in animal studies[1],[3]. When Hb adduct formation is measured a short time after a single acute exposure, or after incubation in vitro, AUC can be calculated using Eq. 3. This equation is based on A, and the second-order reaction rate constant (kNu) for the formation of an adduct to a nucleophilic site in Hb from the concerned electrophile.3 AUC=A/kNu
For calculating the daily AUC from a longer duration of exposure, the daily adduct level increments (a) have to be calculated considering the accumulation and elimination of adducts due to lifetime of the erythrocytes (t er). […] From continuous or subchronic exposure when the exposure time (t) is shorter than t er, the accumulated adduct level is calculated [a × t × (1 − t/2t er)][49].
For in vivo data on AUC of AA and of GA from AA exposure in rats, a study on short-term oral exposure of rats was used[24]. […] Blood samples were collected and AA- and GA-adducts to N-terminal valine in Hb were measured as described above, and recalculated to the daily increment of the adduct level. […]

Details of series [2]: method as in PMID 15668111. The conditions noted are these: 37 °C; cited from earlier work.

In the case of `NC(=O)C1CO1` (racemic) [GA, rac-Glycidamide], the “ratio between species (rat-to-human) of AUC-GA per AUC-AA” value in series [1] is 2.3. Further, in series [2], the “half-life of hydrolysis of GA in an aqueous solution” value is reported as 43 h and the “rate of hydrolysis of GA in an aqueous solution” value is 0.016 h⁻¹.
